Assay results taken from US12508280B2, “Formulations for improving gut health” (DSM IP ASSETS B.V., priority 2018, dated 2025).

Assays:
[1] = tested on: fecal microbial community; test: Microbiome composition by shotgun sequencing: alpha diversity (first set); format: cell-based, human; settings: after 24 h fermentation, vs corresponding control
Protocol: (§1) Since ethanol is known to have antimicrobial effects, two blanks for each type of stock solution were included. As a source of the microbial community, a freshly prepared fecal suspension from the selected donor was added to the reactors. […] All tests, except the blanks, were performed in single repetition, resulting in 40 independent incubations, as specified in Table 1. Incubation conditions of the pre-screening experiment and the final experiment were 48 h at 37° C., under shaking (90 rpm) and anaerobic conditions. DNA were extracted from effluent samples collected from each fermentation flask before (0 h fermentation) and after fermentation (24 h fermentation) and use for microbiome composition analysis by Shotgun sequencing. Effluent samples were collected from each fermentation flask before (0 h fermentation) and after fermentation (48 h fermentation), sterilized by filtering through 0.22 μm filters and used for short chain fatty acids (SCFA), quantification of immunological biomarkers and in vitro analysis in cell culture systems.
(§2) For the first set of in vitro experiments, total DNA was extracted from all samples collected throughout the study using the QIAamp DNA stool minikit (Qiagen, Crawley, United Kingdom) according to the manufacturer's instructions, apart from addition of a bead-beating step and increasing the lysis temperature to 95° C. as described previously (McCormack et al., 2018).
(§3) After DNA isolation, DNA was quantified using the Qubit High Sensitivity DNA assay (Thermo Fisher). Whole metagenome libraries were then prepared using the Illumina Nextera XT kit (Illumina) in accordance with the manufacturer's instructions, with the following modifications: Firstly, tagmentation time was increased to 7 min and secondly, following incorporation of indices and Ampure purification of the products, the samples were each individually sized by running on an Agilent High Sensitivity Chip (Agilent) and quantified using the Qubit High Sensitivity DNA assay (Thermo Fisher) in accordance with Teagasc Sequencing Platform SOPs. The samples were then pooled equimolarly and sequenced on the Illumina NextSeq 500 with a NextSeq 500/550 v2 high-output reagent kit (300 cycles). All sequencing was done in the Teagasc sequencing facility in accordance with standard Illumina sequencing protocols.
(§4) Delivered raw FASTQ sequence files were quality checked as follows: poor quality and duplicate read removal, as well as trimming was implemented using a combination of SAM and Picard tools. Taxonomy was assigned to the reads using the Kraken software and functional analysis was performed with Super focus.

[2] = tested on: genes involved in Acetyl-CoA fermentation to Butyrate pathway; test: Shotgun sequencing functional analysis: butyrate pathway genes (first set); format: cell-based, human; settings: after 24 h fermentation, vs corresponding control
Protocol: as §1, §2, §3, §4

Bifidobacterium = test: Microbiome composition by shotgun sequencing: Bifidobacterium (first set); format: cell-based, human; settings: after 24 h fermentation, vs corresponding control
Protocol: as §1, §2, §3, §4

[3] = tested on: Co-cultures of Caco-2 and HT29-MTX-E12 cells; test: Barrier integrity, leaky gut model, apical stressor Rhamnolipids; format: cell-based; settings: vs corresponding control; for TEER, apical induction of leaky gut cellular model: 48 h minus 0 h fermentation samples; for Lucifer yellow, apical induction of leaky gut cellular model: 48 h fermentation samples
Protocol: Since ethanol is known to have antimicrobial effects, two blanks for each type of stock solution were included. As a source of the microbial community, a freshly prepared fecal suspension from the selected donor was added to the reactors. […] All tests, except the blanks, were performed in single repetition, resulting in 40 independent incubations, as specified in Table 1. Incubation conditions of the pre-screening experiment and the final experiment were 48 h at 37° C., under shaking (90 rpm) and anaerobic conditions. […] Effluent samples were collected from each fermentation flask before (0 h fermentation) and after fermentation (48 h fermentation), sterilized by filtering through 0.22 μm filters and used for short chain fatty acids (SCFA), quantification of immunological biomarkers and in vitro analysis in cell culture systems.
Co-cultures of Caco-2 and HT29-MTX-E12 cells were used to assess the protective effect of the supernatants before (0 h) and after fermentation (48 h) for both sets of in vitro experiments above.
CaCo-2 ECACC 86010202 and HT29-MTX-E12 ECACC 12040401 cells (both from European Collection of Cell Cultures, Salisbury, UK) were both cultured at 37° C., in atmosphere of 5% CO2 in DMEM medium supplemented with 4.5 g/L D-Glucose, 4 mM L-Glutamine, 1 mM Sodium Pyruvate, 1% MEM Non-Essential Amino Acids, 50 μg/mL Gentamicin (Life Technologies Europe B.V., Zug, Switzerland) and 10% heat-inactivated FBS (Sigma-Aldrich, Buchs, Switzerland). Sub-confluent cells were trypsinized using 0.25% Trypsin/EDTA (Life Technologies Europe B.V., Zug, Switzerland) and passaged at a ratio of 1:5-1:10 twice a week. Cells between passages 55 and 85 were used for this study.
Cells were seeded at a density of 20000 cells/well in a 7:3 ratio (Caco-2:HT29-MTX-E12) in Corning HTS Transwell-24 system PET membranes, 0.4 μM pore size, cell growth area 0.33 cm2/well (Corning BV, Amsterdam, Netherlands) and cultured as described above. Media was changed every second to third day.
For both sets of in vitro experiments, the integrity of cell monolayers after the stressor test was evaluated by both TEER values and by measuring the transport of Lucifer yellow from apical to basolateral compartments (Leaky gut model). A prewarmed HBSS transport buffer composed of Hank's Balanced Salt Solution pH 7.4 with Ca2+ and Mg2+, containing 5.5 mM D-(+)-glucose, Sodium Bicarbonate, and supplemented with 4 mM L-glutamine, 20 mM HEPES (Life Technologies Europe B.V., Zug, Switzerland) was used for all permeability experiments. The inserts were rinsed twice with HBSS using a reservoir tray, 100 μl HBSS were then added to the apical site of the inserts and subsequently moved to new wells with fresh HBSS and allowed to equilibrate at 37° C. for 60 min in the incubator followed by TEER measurement to obtain baseline resistance readings.
Lucifer Yellow CH dilithium salt (Sigma-Aldrich, Buchs, Switzerland) was dissolved in HBSS at a final concentration of 100 μg/ml. Basolateral stressor EtOH (Merck, KgaA, Darmstadt, Germany) was diluted to 5% in HBSS. Apical Stressor Rhamnolipids R90 (AGAE Technologies, Corvallis, USA) was dissolved in HBSS containing Lucifer Yellow at a final concentration of 350 μg/ml. All solutions were prepared freshly each time.
The HBSS transport buffer from the basolateral chamber was aspirated first, then the HBSS from the apical chamber and replaced with Lucifer yellow solution. For the apical stressor test, Lucifer yellow solution containing 350 μg/ml Rhamnolipids or Lucifer yellow solution without stressor for the control wells was loaded into the apical compartment, blank HBSS was subsequently added to the basolateral chamber.

[4] = tested on: fecal suspension from the selected donor; test: Intestinal batch fermentation, SCFA production (first set); format: cell-based, human; settings: after 48 h fermentation, vs corresponding control
Protocol: In a first set of in vitro experiments at the start of intestinal batch fermentation incubation, all test ingredients were added from stock solutions to the modified nutritional medium, containing (g/l): 2.5 K2HPO4, 10.9 KH2PO4, 2 NaHCO3, 2 yeast extract, 2 peptone, 1 mucin, 0.5 cysteine, 2 Tween 80, 2 glucose, 2 starch, 2 cellobiose, 0.1 NaCl, 0.01 MgSO4·7H2O, 0.01 CaCl2·6H2O, 0.05 hemin, 0.5 bile salts.
The other compounds were prepared in ethanol: • Vitamin K1 (VK1), • MEG-3 0080 EE Oil (MEG-3 0080 EE), • MEG-3 4535 EE Oil (MEG-3 4535 EE), • MEG-3 8000 EE Oil (MEG-3 8000 EE).
as §1
Short chain fatty acids (SCFA) are an assessment of the microbial carbohydrate metabolism (acetate, propionate and butyrate) or protein metabolism (branched SCFA) and can be compared to typical fermentation patterns for normal GI microbiota. Samples for SCFA analysis were analyzed after 0, 6, 24 and 48 h of incubation for both set of in vitro experiments, above.
SCFA were extracted from the samples with diethyl ether, after the addition of 2-methyl hexanoic acid as an internal standard. Extracts were analysed using a GC-2014 gas chromatograph (Shimadzu's-Hertogenbosch, the Nether-lands), equipped with a capillary fatty acid-free EC-1000Econo-Cap column (dimensions: […]×0.53 mm, film thickness […]; Alltech, Laarne, Belgium), a flame ionization detector and a split injector. The injection volume was […] and the temperature profile was set from 110 to 160° C., with a temperature increase of 6° C. min-1. The carrier gas was nitrogen and the temperature of the injector and detector were […] and 220° C., respectively. The production of unbranched and branched SCFA was calculated by summing the molar concentrations of acetate, propionate, butyrate, valerate and caproate, and summing isobutyrate, isovalerate and isocaproate molar concentrations, respectively. The total SCFA production was defined as the sum of unbranched and branched SCFA.

HT29 cells = test: HT29 cell culture, quantification of immunological biomarkers; format: cell-based; settings: effluent from 24 h fermentation, vs corresponding control
Protocol: as §1, with “([…]), […]” for “(0 h fermentation) and after fermentation (48 h fermentation), sterilized by filtering through 0.22 μm filters and used for short chain fatty acids (SCFA), quantification of immunological biomarkers and in vitro analysis in”
For both sets of in vitro experiments, HT29 cells were obtained from American Type Culture Collection (Manassas, VA). Cells were cultured in DMEM supplemented with 10% fetal bovine serum (FBS), 50 units/ml penicillin, 50 μg/ml streptomycin, L-glutamine, and nonessential amino acids (Life Technologies Europe B.V., Zug, Switzerland). Cells were seeded into 12-well plates at 8×10^5 cells per well and used after 2 days of preculture. They were starved in DMEM containing 0.25% FBS for 18 h before treatment. Cells were treated for 24 hours with TNF-α at 100 ng/mL or fermentation supernatants which were sterile filtered and diluted 1:20 in DMEM containing 0.25% FBS. All treatments were done in triplicate. Consequently, cytokines, chemokines and interleukins were quantified in HT29 supernatants using the Luminex Technology (LiquiChip Workstation IS 200, Qiagen, Hilden, Germany) with Bio-Plex Pro Human Cytokine Panel kits (Bio-Rad, Hercules, CA) or with Luminex Screening Assay kits (R&D Systems, Inc., Minneapolis, MN), following the manufacturer's instructions. The data were acquired with the Luminex IS 2.3 software and evaluated with the LiquiChip Analyser software (Qiagen, Hilden, Germany).

| Structure (SMILES) | microbiome alpha diversity (Shannon diversity index) ([1]; 1× dose) | microbiome alpha diversity (Shannon diversity index) ([1]; 5× dose) | relative abundance of genes involved in Acetyl-CoA fermentation to Butyrate pathway ([2]; 1× dose) | relative abundance of genes involved in Acetyl-CoA fermentation to Butyrate pathway ([2]; 5× dose) | TEER, apical induction of leaky gut cellular model ([3]; 5× dose) | butyrate production ([4]; 0.2× dose) | propionate production ([4]; 0.2× dose) | total SCFAs production ([4]; 0.2× dose) | acetate production ([4]; 1× dose) | butyrate production ([4]; 1× dose) | propionate production ([4]; 1× dose) | butyrate production ([4]; 5× dose) | propionate production ([4]; 5× dose) | total SCFAs production ([4]; 5× dose) | IL-8 production by HT29 cells (HT29 cells; 0.2× dose) | MIP3A-CCL20 production by HT29 cells (HT29 cells; 0.2× dose) | MIP3A-CCL20 production by HT29 cells (HT29 cells; 1× dose) | MIP3A-CCL20 production by HT29 cells (HT29 cells; 5× dose) | microbiome alpha diversity (Shannon diversity index) ([1]; 0.2× dose) | relative abundance of genes involved in Acetyl-CoA fermentation to Butyrate pathway ([2]; 0.2× dose) | further results |
| --- | --- | --- | --- | --- | --- | --- | --- | --- | --- | --- | --- | --- | --- | --- | --- | --- | --- | --- | --- | --- | --- |
| CC(=O)OC/C=C(C)/C=C/C=C(C)/C=C/C1=C(C)CCCC1(C)C [Vitamin A] | increase microbiome diversity | increase microbiome diversity | increase relative abundance | increase relative abundance | increase TEER | increase butyrate production | increase propionate production | increase total SCFAs production | increase acetate production | increase butyrate production | increase propionate production | increase butyrate production | increase propionate production | increase total SCFAs production | increase IL-8 production | increase MIP3A-CCL20 production | increase MIP3A-CCL20 production | increase MIP3A-CCL20 production |  |  | Bifidobacterium relative abundance (Bifidobacterium; 1× dose): increase Bifidobacterium relative abundance; TEER, apical induction of leaky gut cellular model ([3]; 0.2× dose): increase TEER; Lucifer yellow, apical induction of leaky gut cellular model ([3]; 1× dose): decrease Lucifer yellow; TEER, apical induction of leaky gut cellular model ([3]; 1× dose): increase TEER; Lucifer yellow, apical induction of leaky gut cellular model ([3]; 5× dose): decrease Lucifer yellow; IL-8 production by HT29 cells (HT29 cells; 5× dose): increase IL-8 production |
| C=C1CC[C@H](O)C/C1=C/C=C1\CCC[C@]2(C)[C@@H]([C@H](C)CCCC(C)C)CC[C@@H]12 [Vitamin D, Vitamin D3] |  | increase microbiome diversity |  |  | increase TEER | increase butyrate production |  |  |  | increase butyrate production | increase propionate production |  | increase propionate production | increase total SCFAs production |  | increase MIP3A-CCL20 production | increase MIP3A-CCL20 production | increase MIP3A-CCL20 production | increase microbiome diversity | increase relative abundance | Bifidobacterium relative abundance (Bifidobacterium; 0.2× dose): increase Bifidobacterium relative abundance; Bifidobacterium relative abundance (Bifidobacterium; 5× dose): increase Bifidobacterium relative abundance; total SCFAs production ([4]; 1× dose): increase total SCFAs production |
| CC1=C(C/C=C(\C)CCC[C@H](C)CCC[C@H](C)CCCC(C)C)C(=O)c2ccccc2C1=O [Vitamin K1] | increase microbiome diversity | increase microbiome diversity | increase relative abundance | increase relative abundance |  | increase butyrate production | increase propionate production | increase total SCFAs production | increase acetate production | increase butyrate production | increase propionate production | increase butyrate production | increase propionate production | increase total SCFAs production | increase IL-8 production | increase MIP3A-CCL20 production | increase MIP3A-CCL20 production | increase MIP3A-CCL20 production | increase microbiome diversity | increase relative abundance | Bifidobacterium relative abundance (Bifidobacterium; 0.2× dose): increase Bifidobacterium relative abundance; Lucifer yellow, apical induction of leaky gut cellular model ([3]; 0.2× dose): decrease Lucifer yellow; acetate production ([4]; 0.2× dose): increase acetate production; total SCFAs production ([4]; 1× dose): increase total SCFAs production; acetate production ([4]; 5× dose): increase acetate production |
